The results in this text go back to paper PMC3265476, “Functional Characterization of MODY2 Mutations Highlights the Importance of the Fine-Tuning of Glucokinase and Its Role in Glucose Sensing” (PLoS ONE, 2012).

Holding throughout (experiment): Inhibition of glucokinase activity by palmitoyl-CoA, Dixon plots
What all share (assay type): biochemical

Assay [1] concerns the target T1, GST-GK(p.Ala449Thr) (Homo sapiens, UniProt P35557, A449T).
T1 construct: made in house; host or cells: E. coli
T1 sequence (P35557 1-465 A449T): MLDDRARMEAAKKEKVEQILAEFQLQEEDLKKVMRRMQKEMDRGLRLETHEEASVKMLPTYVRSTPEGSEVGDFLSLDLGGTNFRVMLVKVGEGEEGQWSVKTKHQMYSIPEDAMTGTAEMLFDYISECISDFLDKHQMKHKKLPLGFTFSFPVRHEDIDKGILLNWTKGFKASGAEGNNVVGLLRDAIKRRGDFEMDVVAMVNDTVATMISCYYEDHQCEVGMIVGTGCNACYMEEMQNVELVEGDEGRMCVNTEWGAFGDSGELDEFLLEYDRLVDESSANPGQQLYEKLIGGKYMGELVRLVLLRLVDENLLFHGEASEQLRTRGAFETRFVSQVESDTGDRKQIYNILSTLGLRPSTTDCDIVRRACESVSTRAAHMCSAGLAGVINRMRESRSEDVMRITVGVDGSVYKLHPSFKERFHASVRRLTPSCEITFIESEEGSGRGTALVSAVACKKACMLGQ
The method, then:
(§1) Glucokinase activity was measured spectrophotometrically on a spectrophotometer Uviconxl (Secoman), using an NADP^+-coupled assay with glucose-6-phosphate dehydrogenase, as described previously. The final reaction mixture contained 100 mM Tris pH 7.4, 150 mM KCl, 1 mM MgCl2, 1.4 mM ß-mercaptoethanol, 0.1% BSA, 5 mM ATP-MgCl2, 1 mM NADP^+, and 1 U/ml glucose-6-phosphate dehydrogenase. Determination of kinetic parameters and thermal stability tests were performed as in [20]. […] Inhibition by NAG and MH was determined under standard assay conditions with 50 nM glucokinase. The inhibition by palmitoylCoA was determined in reaction mixtures containing 25 mM Hepes pH 7.1; 25 mM KCl; 1 mM NADP, 1 mM ATP-MgCl2; 2.5 mM MgCl2; 5 mM ß-mercaptoethanol, 1 U/ml glucose-6-phosphate dehydrogenase and 61 nM glucokinase. Due to the low Kcat value of mutant GST-GK(pAla449Thr), the amount of protein used in inhibition assays was 180 nM to get sufficient activity to allow for accurate determination of the inhibitor effect. In these conditions, GK activity (U/mg of GST-GK(pAla449Thr)) in the absence of inhibitors was 1.3±0.08, 1.1±0.06 and 0.9±0.05 at 2, 1.5 and 1 mM of glucose, respectively for NAG and MH assays and 0.5±0.05, 0.33±0.03 and 0.27±0.03 at 2, 1.5 and 1 mM glucose, respectively for palmitoyl-CoA assay.

For assay [2], the target named is T2, GST-GK(p.Gly223Ser) (Homo sapiens, UniProt P35557, G223S).
T2 construct: made in house; host or cells: E. coli
T2 sequence (P35557 1-465 G223S): T1 sequence (P35557 1-465 A449T) with G223S, T449A
The note with it: glucose 12.5, 25 and 50 mM; read-out: I50 for palmitoyl-CoA. On the procedure:
as §1

In assay [3] the target is T3, Wild-type GST-GK (Homo sapiens, UniProt P35557).
T3 construct: made in house; host or cells: E. coli
T3 sequence (P35557 1-465): T1 sequence (P35557 1-465 A449T) with T449A
The note with it: glucose 2, 5 and 8 mM; 61 nM glucokinase; read-out: I50 for palmitoyl-CoA. On the procedure:
as §1

Each structure is given as a SMILES string. Substitutions are numbered along the chain they refer to.

Turning to `CCCCCCCCCCCCCCCC(=O)SCCNC(=O)CCNC(=O)[C@H](O)C(C)(C)COP(=O)(O)OP(=O)(O)OC[C@H]1O[C@@H](n2cnc3c(N)ncnc32)[C@H](O)[C@@H]1OP(=O)(O)O` [palmitoyl-CoA], in assay [1], the “decrease of I50 for palmitoyl-CoA vs wild type” value is approximately 26%. Further, the IC50 is 2240 ± 140 nM in assay [1] (glucose 1, 1.5 and 2 mM, 180 nM protein, read-out: I50 for palmitoyl-CoA); 1420 ± 130 nM in assay [2]; 3060 ± 270 nM in assay [3].
